The values below are quoted from earlier work in patent US20120059052A1, “PRENYLFLAVONOID FORMULATIONS” (BIOACTIVES, INC., priority 2005, published 2012).

The target in one data set is T1, Cyp1A1 (Homo sapiens, UniProt P04798).
T1 sequence (P04798 1-512): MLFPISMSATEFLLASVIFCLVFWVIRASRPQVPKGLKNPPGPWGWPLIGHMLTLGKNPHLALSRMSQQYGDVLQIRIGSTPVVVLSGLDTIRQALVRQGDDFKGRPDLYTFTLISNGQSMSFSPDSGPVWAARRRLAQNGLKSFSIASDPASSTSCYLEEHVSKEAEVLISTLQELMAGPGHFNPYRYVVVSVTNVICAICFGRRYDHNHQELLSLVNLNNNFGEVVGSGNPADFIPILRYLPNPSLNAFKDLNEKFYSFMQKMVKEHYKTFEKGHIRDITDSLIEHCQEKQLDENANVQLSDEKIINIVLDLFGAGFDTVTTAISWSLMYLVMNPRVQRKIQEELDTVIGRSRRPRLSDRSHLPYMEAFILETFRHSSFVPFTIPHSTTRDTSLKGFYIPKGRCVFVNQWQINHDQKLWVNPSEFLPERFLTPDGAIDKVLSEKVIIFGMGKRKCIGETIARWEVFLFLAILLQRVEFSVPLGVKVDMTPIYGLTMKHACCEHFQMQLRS
Conditions: cDNA-expressed human enzyme; cited from earlier work.

A further data set deals with T2, Cyp1B 1 (Homo sapiens, UniProt Q16678).
T2 sequence (Q16678 1-543): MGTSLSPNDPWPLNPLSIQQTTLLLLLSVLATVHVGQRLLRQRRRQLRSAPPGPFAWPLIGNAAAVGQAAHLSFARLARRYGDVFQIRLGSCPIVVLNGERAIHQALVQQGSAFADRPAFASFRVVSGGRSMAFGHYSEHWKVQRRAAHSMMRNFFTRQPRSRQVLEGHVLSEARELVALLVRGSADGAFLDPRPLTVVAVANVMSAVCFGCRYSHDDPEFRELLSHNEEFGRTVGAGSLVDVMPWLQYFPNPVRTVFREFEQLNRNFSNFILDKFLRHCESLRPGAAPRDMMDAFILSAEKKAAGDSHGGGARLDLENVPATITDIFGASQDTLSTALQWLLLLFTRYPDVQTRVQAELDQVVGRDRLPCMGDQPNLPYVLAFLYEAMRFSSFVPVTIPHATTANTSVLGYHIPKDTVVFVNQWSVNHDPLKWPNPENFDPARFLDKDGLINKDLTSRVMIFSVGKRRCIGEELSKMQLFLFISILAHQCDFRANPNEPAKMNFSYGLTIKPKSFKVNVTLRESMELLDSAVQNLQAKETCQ
The following applies: cDNA-expressed human enzyme; cited from earlier work.

The target of another data set is T3, constitutive COX-1 (Ovis aries, UniProt P05979).
T3 sequence (P05979 25-600): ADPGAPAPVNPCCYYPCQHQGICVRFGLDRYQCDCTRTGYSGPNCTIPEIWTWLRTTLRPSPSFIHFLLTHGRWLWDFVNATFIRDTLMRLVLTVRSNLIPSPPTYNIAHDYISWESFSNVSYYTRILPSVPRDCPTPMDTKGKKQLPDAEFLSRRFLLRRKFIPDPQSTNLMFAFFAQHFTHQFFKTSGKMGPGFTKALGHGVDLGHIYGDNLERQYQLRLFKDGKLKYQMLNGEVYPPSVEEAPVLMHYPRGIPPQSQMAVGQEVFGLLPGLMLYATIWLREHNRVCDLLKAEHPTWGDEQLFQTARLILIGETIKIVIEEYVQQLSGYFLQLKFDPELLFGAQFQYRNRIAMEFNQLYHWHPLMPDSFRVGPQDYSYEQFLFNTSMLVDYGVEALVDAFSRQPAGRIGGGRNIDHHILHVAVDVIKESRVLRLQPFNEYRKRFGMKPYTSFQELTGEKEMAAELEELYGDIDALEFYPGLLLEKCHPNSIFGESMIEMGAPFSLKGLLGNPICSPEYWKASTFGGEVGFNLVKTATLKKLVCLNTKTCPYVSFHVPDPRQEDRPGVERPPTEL
Conditions: read-out: IC50, inhibition of COX-1; cited from earlier work.

The next data set addresses T4, Cyp1A2 (Homo sapiens, UniProt P05177).
T4 sequence (P05177 1-516): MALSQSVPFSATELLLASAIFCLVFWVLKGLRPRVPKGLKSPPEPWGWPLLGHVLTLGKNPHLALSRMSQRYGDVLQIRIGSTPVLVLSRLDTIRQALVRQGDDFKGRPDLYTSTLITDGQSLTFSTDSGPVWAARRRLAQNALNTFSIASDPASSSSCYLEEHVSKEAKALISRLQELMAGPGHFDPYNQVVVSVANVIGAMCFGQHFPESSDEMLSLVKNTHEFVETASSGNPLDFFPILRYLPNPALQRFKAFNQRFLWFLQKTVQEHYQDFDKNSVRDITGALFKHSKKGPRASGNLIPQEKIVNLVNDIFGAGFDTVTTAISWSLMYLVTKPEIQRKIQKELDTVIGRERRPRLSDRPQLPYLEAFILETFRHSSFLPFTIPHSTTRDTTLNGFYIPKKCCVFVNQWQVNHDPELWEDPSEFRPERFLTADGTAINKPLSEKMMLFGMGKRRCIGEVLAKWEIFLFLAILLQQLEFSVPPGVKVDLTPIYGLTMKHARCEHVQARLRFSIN
The following applies: cDNA-expressed human enzyme; cited from earlier work.

In the case of `COc1cc(O)c(CC=C(C)C)c(O)c1C(=O)/C=C/c1ccc(O)cc1` [Xanthohumol, xanthohumol], the “Inhibition of Cyp1A1” value on Cyp1A1 is given as “strongly inhibit”. Also, on Cyp1B 1, the “Inhibition of Cyp1B1” value is recorded as “strongly inhibit”. The IC50 on constitutive COX-1 was 17 µM. In addition, the “Inhibition of Cyp1A2” value at Cyp1A2 was “strongly inhibit”.

Broadly, the IC50 is the concentration needed to halve the response being measured.
